According to patent US9006139B2, “Active compound combinations” (Bayer Intellectual Property GmbH, priority 2009, dated 2015):

Tests used:
Format in all cases: in vivo
Phytophthora infestans = assay: whole plant or invertebrate; conditions: Phytophthora infestans, 72 h; for pest or weed control at 1 ppm: read-out: Efficacy in % found, Table A, test 1, 1 ppm a.i.
Leptosphaeria nodorum = Leptosphaeria nodorum test (wheat)/preventive; conditions: Parastagonospora nodorum, 192 h, Table K, read-out: Efficacy in % found; for pest or weed control at 500 ppm: 500 ppm a.i.; for pest or weed control at 125 ppm: 125 ppm a.i.; for pest or weed control at 62.5 ppm: 62.5 ppm a.i.
Description: (§1) Solvent: 49 parts by weight of n,n-dimethylacetamid
(§2) Emulsifier: 1 part by weight of alkylaryl polyglycol ether
(§3) To produce a suitable preparation of active compound, 1 part by weight of active compound or active compound combination is mixed with the stated amounts of solvent and emulsifier, and the concentrate is diluted with water to the desired concentration. To test for preventive activity, young plants are sprayed with the preparation of active compound or active compound combination at the stated rate of application. After the spray coating has been dried, the plants are sprayed with a spore suspension of Leptosphaeria nodorum. The plants remain for 48 hours in an incubation cabinet at approximately 20° C. and a relative atmospheric humidity of approximately 100%. The plants are placed in the greenhouse at a temperature of approximately 22° C. and a relative atmospheric humidity of approximately 80%. The test is evaluated 8 days after the inoculation. 0% means an efficacy which corresponds to that of the untreated control, while an efficacy of 100% means that no disease is observed.

[1] = test system: Blumeria graminis fsp. tritici; assay: Blumeria test (wheat)/preventive; conditions: Table G; 62.5 ppm a.i.
Description: as §1, §2
To produce a suitable preparation of active compound, 1 part by weight of active compound or active compound combination is mixed with the stated amounts of solvent and emulsifier, and the concentrate is diluted with water to the desired concentration. To test for preventive activity, young plants are sprayed with the preparation of active compound or active compound combination at the stated rate of application. After the spray coating has been dried, the plants are dusted with spores of Blumeria graminis fsp. tritici. The plants are placed in the greenhouse at a temperature of approximately 18° C. and a relative atmospheric humidity of approximately 80% to promote the development of mildew pustules. The test is evaluated 7 days after the inoculation. 0% means an efficacy which corresponds to that of the untreated control, while an efficacy of 100% means that no disease is observed.

Sphaerotheca fuliginea = assay: Sphaerotheca test (cucumbers)/protective; conditions: Podosphaera fuliginea, 168 h, Table C, read-out: Efficacy in % found
Description: (§4) Solvent: 24.5 parts by weight of acetone
(§5) • 24.5 parts by weight of dimethylacetamide Emulsifier: 1 part by weight of alkylaryl polyglycol ether
To produce a suitable preparation of active compound, 1 part by weight of active compound is mixed with the stated amounts of solvent and emulsifier, and the concentrate is diluted with water to the desired concentration. To test for protect activity, young plants are sprayed with the preparation of active compound at the stated rate of application. After the spray coating has dried on, the plants are inoculated with an aqueous spore suspension of Sphaerotheca fuliginea. The plants are then placed in a greenhouse at approximately 23° C. and a relative atmospheric humidity of approximately 70%. The test is evaluated 7 days after the inoculation. 0% means an efficacy which corresponds to that of the control, while an efficacy of 100% means that no disease is observed.

Alternaria solani = assay: Alternaria test (tomatoes)/protective; conditions: Alternaria solani, 72 h, Table E, read-out: Efficacy in % found; for pest or weed control at 2 ppm / pest or weed control at 0.5 ppm: test 1; for pest or weed control at 2 ppm: 2 ppm a.i.; for pest or weed control at 0.5 ppm: 0.5 ppm a.i.
Description: as §4, §5
(§6) To produce a suitable preparation of active compound, 1 part by weight of active compound is mixed with the stated amounts of solvent and emulsifier, and the concentrate is diluted with water to the desired concentration. To test for protective activity, young plants are sprayed with the preparation of active compound at the stated rate of application. After the spray coating has dried on, the plants are inoculated with an aqueous spore suspension of Alternaria solani. The plants are then placed in an incubation cabinet at approximately 20° C. and a relative atmospheric humidity of 100%. The test is evaluated 3 days after the inoculation. 0% means an efficacy which corresponds to that of the control while an efficacy of 100% means that no disease is observed.

Botrytis cinerea = assay: Botrytis test (beans)/protective; conditions: Table F; for pest or weed control at 25 ppm / Efficacy in % found: test 1
Description: as §4, §5
To produce a suitable preparation of active compound, 1 part by weight of active compound is mixed with the stated amounts of solvent and emulsifier, and the concentrate is diluted with water to the desired concentration. To test for protective activity, young plants are sprayed with the preparation of active compound. After the spray coating has dried on, 2 small pieces of agar covered with growth of Botrytis cinerea are placed on each leaf. The inoculated plants are placed in a darkened chamber at 20° C. and a relative atmospheric humidity of 100%. 2 days after the inoculation, the size of the lesions on the leaves is evaluated. 0% means an efficacy which corresponds to that of the control, while an efficacy of 100% means that no disease is observed.

Venturia inaequalis = assay: Venturia test (apples)/protective; conditions: Table D
Description: as §4, §5
as §6, with “conidia” for “spore”, “the causal agent of apple scab (Venturia inaequalis) and” for “Alternaria solani. The plants are”, “remain for 1 day” for “placed”, “The plants are then placed in a greenhouse at approximately 21° C. and a relative atmospheric humidity of approximately 90%. The” for “The”, “10” for “3”, “control,” for “control”

Septoria tritici = assay: Septoria tritici-test (wheat)/preventive; conditions: Table H; 62.5 ppm a.i.
Description: as §1, §2
as §3, with “suspension of Septoria tritici. The plants” for “suspension of Leptosphaeria nodorum. The plants”, “of approximately 100% and afterwards for 60 hours at approximately 15° C. in a translucent incubation cabinet at a relative atmospheric humidity of approximately 100%. The” for “of approximately 100%. The”, “of approximately 15° C. and” for “of approximately 22° C. and”, “is evaluated 21 days after” for “is evaluated 8 days after”

Pyrenophora teres = assay: Pyrenophora teres-test (barley)/preventive
Description: as §1, §2
as §3, with “Pyrenophora teres.” for “Leptosphaeria nodorum.”, “20°” for “22°”

Plasmopara viticola = assay: Plasmopara test (grapevines)/protective; conditions: Table B
Description: as §4, §5
as §6, with “Plasmopara viticola and” for “Alternaria solani. The plants are”, “remain for 1 day” for “placed”, “The plant is subsequently placed for 4 days in a greenhouse at approximately 21° C. and a relative atmospheric humidity of approximately 90%. The plants are then misted and placed for 1 day in an incubation cabinet. The” for “The”, “6” for “3”, “control,” for “control”

[2] = Botrytis cinerea, 48 h, 25 ppm a.i., read-out: Efficacy in % found

C[C@@]1(c2ccc(Oc3ccccc3)cc2)OC(=O)N(Nc2ccccc2)C1=O (racemic) [(3.6), famoxadone]
pest or weed control at 2.5 ppm (Phytophthora infestans; read-out: Efficacy in % found, Table A, test 7, 2.5 ppm a.i.): 31%
pest or weed control at 500 ppm (Leptosphaeria nodorum): 67%

CCCC1COC(Cn2cncn2)(c2ccc(Cl)cc2Cl)O1 (centres unmarked) [(1.40), propiconazole]
Efficacy in % found [1]: 38%

OC(Cc1ccccc1Cl)(Cn1nc[nH]c1=S)C1(Cl)CC1 (centres unmarked) [(1.41), prothioconazole]
pest or weed control at 125 ppm (Leptosphaeria nodorum): 88%
pest or weed control at 0.5 ppm (Sphaerotheca fuliginea; test 1, 0.5 ppm a.i.): 37%
pest or weed control at 2 ppm (Alternaria solani): 30%
pest or weed control at 25 ppm (Botrytis cinerea; [2]): 49%

CC(C)(C)C(O)(CCc1ccc(Cl)cc1)Cn1cncn1 (centres unmarked) [(1.47), tebuconazole]
pest or weed control at 125 ppm (Leptosphaeria nodorum): 88%
pest or weed control at 2 ppm (Sphaerotheca fuliginea; test 1, 2 ppm a.i.): 50%
pest or weed control at 2 ppm (Alternaria solani): 35%
pest or weed control at 25 ppm (Botrytis cinerea; [2]): 4%

Cn1cc(C(=O)Nc2ccc(F)cc2-c2ccc(Cl)c(Cl)c2)c(C(F)F)n1 [(2.2), bixafen]
Efficacy in % found (Venturia inaequalis; test 2, 0.5 ppm a.i.): 0%
Efficacy in % found (Septoria tritici): 50%

O=C(Nc1ccccc1-c1ccc(Cl)cc1)c1cccnc1Cl [(2.3), boscalid]
Efficacy in % found (Pyrenophora teres; Table I1, 62.5 ppm a.i.): 50%
Efficacy in % found (Venturia inaequalis; test 1, 5 ppm a.i.): 0%
pest or weed control at 25 ppm (Botrytis cinerea; [2]): 50%

O=C(NCCc1ncc(C(F)(F)F)cc1Cl)c1ccccc1C(F)(F)F [(2.6), fluopyram]
Efficacy in % found (Venturia inaequalis; test 1, 1 ppm a.i.): 0%
Efficacy in % found (Septoria tritici): 90%

CC(C)C1C2CCC1c1c(NC(=O)c3cn(C)nc3C(F)F)cccc12 (centres unmarked) [(2.10), isopyrazam]
Efficacy in % found (Venturia inaequalis; test 1, 1 ppm a.i.): 28%
Efficacy in % found (Septoria tritici): 80%

Cc1nn(C)c(F)c1C(=O)Nc1ccccc1C(C)CC(C)C (centres unmarked) [(2.19), penflufen]
Efficacy in % found (Venturia inaequalis; test 1, 1 ppm a.i.): 0%
Efficacy in % found (Septoria tritici): 50%
Efficacy in % found (Botrytis cinerea; 50 ppm a.i.): 65%

Cn1cc(C(=O)Nc2ccccc2C2CC2C2CC2)c(C(F)F)n1 (centres unmarked) [(2.21), sedaxane]
Efficacy in % found (Pyrenophora teres; Table I1, 125 ppm a.i.): 50%
Efficacy in % found (Venturia inaequalis; test 1, 1 ppm a.i.): 24%
Efficacy in % found (Botrytis cinerea; 25 ppm a.i.): 30%

Cc1ccc(-c2c(Cl)nc(C#N)n2S(=O)(=O)N(C)C)cc1 [(3.3), cyazofamid]
Efficacy in % found (Plasmopara viticola; 1 ppm a.i.): 0%

CO/N=C(/C1=NOCCO1)c1ccccc1Oc1ncnc(Oc2ccccc2Cl)c1F [(3.8), fluoxastrobin]
pest or weed control at 1 ppm (Phytophthora infestans): 30%
pest or weed control at 62.5 ppm (Leptosphaeria nodorum): 63%
pest or weed control at 0.5 ppm (Alternaria solani): 40%
pest or weed control at 25 ppm (Botrytis cinerea; [2]): 8%

CO/N=C(/C(=O)OC)c1ccccc1COc1ccccc1C [(3.9), kresoxim-methyl]
Efficacy in % found (Pyrenophora teres; Table I2, 62.5 ppm a.i.): 67%
pest or weed control at 5 ppm (Sphaerotheca fuliginea; test 4, 5 ppm a.i.): 52%
pest or weed control at 2.5 ppm (Alternaria solani; test 2, 2.5 ppm a.i.): 50%
pest or weed control at 2.5 ppm (Botrytis cinerea; Botrytis cinerea, 48 h, test 3, 2.5 ppm a.i., read-out: Efficacy in % found): 75%

COC(=O)N(OC)c1ccccc1COc1ccn(-c2ccc(Cl)cc2)n1 [(3.13), pyraclostrobin]
pest or weed control at 1 ppm (Phytophthora infestans): 58%
pest or weed control at 62.5 ppm (Leptosphaeria nodorum): 88%
pest or weed control at 0.5 ppm (Alternaria solani): 50%
Efficacy in % found (Venturia inaequalis; test 1, 0.5 ppm a.i.): 38%
pest or weed control at 25 ppm (Botrytis cinerea; [2]): 63%

CON=C(C(=O)OC)c1ccccc1CON=C(C)c1cccc(C(F)(F)F)c1 [(3.17), trifloxystrobin]
pest or weed control at 0.5 ppm (Alternaria solani): 30%
Efficacy in % found (Venturia inaequalis; test 1, 0.5 ppm a.i.): 8%
pest or weed control at 25 ppm (Botrytis cinerea; [2]): 40%

CCC(C)(NC(=O)c1cc(Cl)c(C)c(Cl)c1)C(=O)CCl (centres unmarked) [(4.9), zoxamide]
pest or weed control at 1 ppm (Phytophthora infestans): 58%
Efficacy in % found (Plasmopara viticola; 2 ppm a.i.): 6%

CN(C)C(=S)SSC(=S)N(C)C [(5.25), thiram]
pest or weed control at 500 ppm (Leptosphaeria nodorum): 33%

Cc1cc(C2CC2)nc(Nc2ccccc2)n1 [(7.3), cyprodinyl]
Efficacy in % found (Pyrenophora teres; Table I1, 125 ppm a.i.): 67%
pest or weed control at 10 ppm (Botrytis cinerea; Botrytis cinerea, 48 h, test 2, 10 ppm a.i., read-out: Efficacy in % found): 0%

C#CCOc1ccc(CCNC(=O)C(OCC#C)c2ccc(Cl)cc2)cc1OC (centres unmarked) [(9.5), mandipropamid]
Efficacy in % found (Plasmopara viticola; 1 ppm a.i.): 57%

O=[N+]([O-])c1cc(C(F)(F)F)c(Cl)c([N+](=O)[O-])c1Nc1ncc(C(F)(F)F)cc1Cl [(14.2), fluazinam]
pest or weed control at 500 ppm (Leptosphaeria nodorum): 89%
